Assay results from patent US20260207717A1, “METHODS FOR TREATING INFANTILE-ONSET POMPE DISEASE IN PEDIATRIC PATIENTS” (Amicus Therapeutics, Inc., priority 2022, published 2026).

Columns and labels:
[1] = system: adult subjects with late-onset Pompe disease (LOPD); test: ATB200-03 (PROPEL) phase 3 trial, efficacy; format: in vivo, human; conditions: for absolute decline in percent-predicted FVC: 52 weeks; for 6MWD Baseline / FVC (% predicted) Baseline: before treatment
Method: Efficacy Analyses. The primary efficacy endpoint (i.e., change from baseline to Week 52 in 6MWD) was analyzed using a parametric analysis of covariance (ANCOVA) model to compare between the new treatment and the control. […] However, the baseline 6MWD could not be used in the model twice (both as a continuous and a categorical variable) due to the expected high point biserial correlation between them. Thus, the 6MWD continuous variable remained in the model but the categorical 6MWD was removed.

[2] = system: LAMP1, LC3, dysferlin in muscle fibers; test: Biomarker changes (LAMP1, LC3, dysferlin) in muscle of Gaa KO mice; format: in vivo
Method: The therapeutic effects of ATB200 and miglustat were evaluated and compared against those of Alglucosidase alfa in Gaa KO mice. For the study, male Gaa KO (3- to 4-month old) and age-matched wild-type (WT) mice were used. Alglucosidase alfa was administered via bolus tail vein intravenous (IV) injection. In the co-administration regimen, miglustat was administered via oral gavage (PO) 30 minutes prior to the IV injection of ATB200. Treatment was given biweekly. Treated mice were sacrificed after 14 days from the last administration and various tissues were collected for further analysis. Table 11 summarizes the study design:
Tissue samples were also analyzed for biomarker changes following the methods discussed in: Khanna R, et al. (2012), “The pharmacological chaperone [i.e., enzyme stabilizer] […]
Similarly, intense LC3-positive aggregates in the muscle fibers of untreated Gaa KO mice signify the presence of autophagic zones and autophagy build-up. […] A similar observation was made when the expression of LC3 was assessed using western blot. […]
Dysferlin, a protein involved in membrane repair and whose deficiency/mistrafficking is associated with a number of muscular dystrophies, was also assessed.

[3] = system: adult subjects with late-onset Pompe disease (LOPD); test: ATB200-03 (PROPEL) trial, safety; parameters: species or system human; conditions: in vivo
Excerpt: Concomitant medications and nondrug therapies were also be recorded.
Safety Analyses. Safety data was summarized using counts and percentages for categorical data and descriptive statistics (mean, standard deviation, median, minimum, maximum) for continuous data. • Efficacy Results from the ATB200-03 Trial

[4] = system: subjects with Pompe disease; conditions: LOPD, systematic review (Toscano and Schoser 2013); cited from earlier work
[5] = system: LOPD population (ERT-naïve and ERT-experienced); test: Indirect treatment comparison, multi-level network meta regression (ML-NMR); parameters: species or system human; conditions: base-case scenario, sensitivity analysis (RCT data only, FIGS. 66, 67)
Method: Moreover, a comparison of three randomized clinical trials (LOTS: alglucosidase alfa vs placebo; COMET: avalglucosidase alfa vs alglucosidase alfa; and PROPEL: cipaglucosidase alfa/miglustat vs alglucosidase alfa) share 6MWD and % predicted FVC as key primary or secondary endpoints. Using patient-level data from the PROPEL randomized clinical trial (RCT) plus aggregate published data from other RCTs, Phase I/II and open label extension trials, a multi-level network meta-regression was conducted, adjusting for various baseline covariates including previous ERT duration. The base case scenario had covariates resembling the PROPEL population (naïve and ERT-experienced) and analyzed 6MWD and FVC change from baseline at 52 weeks. […]
A systematic literature review (SLR) was conducted to identify relevant published clinical studies of ERTs in LOPD. Outcomes assessed were change from baseline in 6-minute walking distance (6MWD) (m) and in forced vital capacity (FVC; % predicted) at week 52, acknowledged by clinicians, HTA agencies and payers as key LOPD trial endpoints. […]
A base-case scenario was evaluated in which all covariates were set to the target population of the PROPEL trial. […]

[6] = system: creatine kinase (CK), urinary hexose tetrasaccharide (Hex4); test: ATB200-03 (PROPEL) trial, biomarkers; format: in vivo, human; conditions: for mean urinary Glc4 concentration: ERT-experienced patients
Excerpt: Pharmacodynamic endpoints were as follows: • change from baseline to Week 52 in serum CK level • change from baseline to Week 52 in urinary Hex4 level

[7] = system: single fibers isolated from the white gastrocnemius of Gaa KO mice; test: Single fiber analysis (LAMP1/LC3 co-immunofluorescence); format: in vivo
Excerpt: FIG. 17 depicts co-immunofluorescent staining of LAMP1 (green) (see for example, “B”) and LC3 (red) (see, for example, “A”) in single fibers isolated from the white gastrocnemius of Gaa KO mice treated with a vehicle, alglucosidase alfa, or ATB200. “C” depicts clearance of autophagic debris and absence of enlarged lysosome. A minimum of 30 fibers were examined from each animal.
As a result, a significant portion of muscle fibers analyzed (36-60%) from ATB200-treated mice appeared normal or near-normal.

[8] = ERT treatment naive population, listed as Alglucosidase alfa
[9] = overall ERT switch and ERT naïve population

Substance: [199-arginine,223-histidine]prepro-α-glucosidase (human) [alglucosidase alfa]
- 6MWD CFBL at Week 52 ([1]; ERT switch population): 0.0 m
- FVC (% predicted) CFBL at Week 52 ([1]; ERT switch population): −4.0 (0.9) % predicted
- absolute decline in percent-predicted FVC ([1]; ERT switch population): 4.0%
- 6MWD Baseline ([1]; ERT switch population): 334.6 (114.0) m
- FVC (% predicted) Baseline ([1]; ERT switch population): 67.5 (21.0) % predicted
- 6MWD CFBL at Week 52 ([1]; ERT switch population, listed as Alglucosidase alfa): 0.0 (7.2) m
- 6MWD CFBL at Week 52 ([1]; ERT treatment naive population): 38 m
- FVC (% predicted) CFBL at Week 52 ([1]; ERT treatment naive population): −3.6 % predicted
- 6MWD Baseline ([1]; ERT treatment naive population): 420.9 (135.7) m
- FVC (% predicted) Baseline ([1]; ERT treatment naive population): 79.1 (22.6) % predicted
- 6MWD CFBL at Week 52 [1, 8]: +38.3 (11.1) m
- FVC (% predicted) CFBL at Week 52 [1, 8]: −3.6 (1.8) % predicted
- mean change (SD) in MMT score for lower extremities ([1]; baseline to week 52): 0.9 (2.58)
- mean change in total GSGC score ([1]; baseline to week 52): 0.77 (1.8)
- 6MWD CFBL at Week 52 [1, 9]: 7 m
- 6MWD Baseline [1, 9]: 351.0 (121.3) m
- 6MWD CFBL at Week 52 ([1]; overall ERT switch and ERT naïve population, listed as Alglucosidase alfa): +7.2 (6.6) m
- GSGC compared to alglucosidase alfa ([1]; overall and ERT-experienced populations, week 52): worsening
- FVC (% predicted) CFBL at Week 52 ([1]; overall population): −4.0 (0.8) % predicted
- absolute decline in percent-predicted FVC ([1]; overall population): 4.0%
- FVC (% predicted) Baseline ([1]; overall population): 69.7 (21.5) % predicted
- LC3 II levels (western blot), effect on autophagy [2]: modest
- patients who discontinued treatment due to an adverse event [3]: 2.6%
- patients with injection associated reactions (IARs) [3]: 26%
- subjects without initial improvement during treatment [4]: > 30%
- relative effect on 6MWT and FVC [5]: numerically favorable versus placebo
- mean urinary Glc4 concentration ([6]; Week 52): 9.1 mmol/mol
- mean urinary Glc4 concentration ([6]; baseline): 7.2 mmol/mol
- mean change of CK ([6]; after 52 weeks): +15.6%
- mean change of urine Hex-4 ([6]; combined ERT switch and ERT naïve population, after 52 weeks): +11.0%
- Fibers with Autophagy Buildup [7]: >90%
- Fibers with Normal or Near-normal Appearance [7]: <10%
